We go through 3 molecules from patent US5587392A, “Azolyl methyl phenyl derivatives having aromatase inhibitory activity” (Mochida Pharmaceutical Co., Ltd., priority 1994, dated 1996).

The subject of series [1] is cleavage enzymes of cholesterol side chains. The note with it: related art; cited from earlier work.
Series [2] has as its system plasma aldosterone. Kind of series: Lowering effect on plasma aldosterone. In kind it is in vivo, male SD rats.
Series [3] has as its system plasma 17α-hydroxyprogesterone. Kind of series: Elevating effect on plasma 17α-hydroxyprogesterone. Type of series: in vivo, male SD rats.
For series [4], the system named is biosynthesis of aldosterone. The note with it: related art; cited from earlier work.
Series [5] concerns the target T1, aromatase from rat ovary (Rattus norvegicus, UniProt P22443).
T1 construct: Using as an enzyme sample the ovarian microsome fraction from a female rat; from tissue; host or cells: rat ovary, microsome fraction (female rat)
T1 sequence (P22443 1-508): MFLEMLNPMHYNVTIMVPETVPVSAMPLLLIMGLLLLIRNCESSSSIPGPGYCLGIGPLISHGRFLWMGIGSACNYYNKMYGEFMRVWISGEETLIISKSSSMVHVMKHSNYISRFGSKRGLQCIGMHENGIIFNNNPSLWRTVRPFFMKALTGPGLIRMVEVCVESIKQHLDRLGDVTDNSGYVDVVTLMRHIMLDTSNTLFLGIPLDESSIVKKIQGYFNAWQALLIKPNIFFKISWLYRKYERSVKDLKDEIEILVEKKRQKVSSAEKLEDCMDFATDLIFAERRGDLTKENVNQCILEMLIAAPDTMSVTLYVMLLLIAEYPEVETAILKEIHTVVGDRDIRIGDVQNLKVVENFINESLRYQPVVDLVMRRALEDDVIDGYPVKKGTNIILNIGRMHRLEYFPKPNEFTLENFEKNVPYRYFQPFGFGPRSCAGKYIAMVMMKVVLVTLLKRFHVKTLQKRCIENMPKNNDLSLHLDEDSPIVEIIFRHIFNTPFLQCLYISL
Kind of series: Inhibitory activity on aromatase from rat ovary. In kind it is biochemical. The note with it: rat ovarian microsomes, 30 nM [1β-3H] androstenedione, pH 7.4, 37° C., 15 minutes; read-out: IC50 value.

In series [6] the test system is progesterone. The experiment in a line: Effect on plasma levels of progesterone. The note with it: even at the highest doses (10 mg/kg; CGS 16949A 1 mg/kg). Type of series: in vivo, male SD rats.
Series [7] concerns testosterone. The experiment in a line: Effect on plasma levels of testosterone. Particulars: even at the highest doses (10 mg/kg; CGS 16949A 1 mg/kg). Type of series: in vivo, male SD rats.
The test system of series [8] is corticosterone. Kind of series: Effect on plasma levels of corticosterone. Type of series: in vivo, male SD rats. The note with it: even at the highest doses (10 mg/kg; CGS 16949A 1 mg/kg).
Series [9] concerns plasma estradiol. The experiment in a line: Decreasing activity on blood estrogen (plasma estradiol, PMSG-treated rats). In kind it is in vivo, female SD rats. The note with it: Rattus norvegicus, po, 4 hours after dosing, read-out: Ratio in plasma estradiol decrease. How it is done: More specifically, pregnant mare serum gonadotropin (PMSG) was subcutaneously administered to female SD rats aged 3 weeks, at a dose of 200 IU/rat. […] Four hours after the dosing of the test compound, blood was sampled, and plasma estradiol was messuered by radioimmunoassay(RIA). The decreasing ratio (%) in plasma estradiol levels was calculated by comparing with control groups.

In series [10] the test system is steroid hormone level in blood. The experiment in a line: Effects on the synthesis of various steroid hormones, compared with the dose lowering blood estrogen. Type of series: in vivo, rats. The note with it: 10 mg/kg.

Where “and” joins values, the source holds several entries; their conditions need not be identical. Equal entries are not always repeated.

As for `CCC1(c2ccc(N)cc2)CCC(=O)NC1=O` (centres unmarked) [AG, Aminoglutethimide], in series [1], the “decrease of glucocorticoids and mineral corticoids” value was “causes therefore the decrease of glucocorticoids and mineral corticoids”; the “potency to inhibit cleavage enzymes of cholesterol side chains” value was “higher potency to inhibit cleavage enzymes of cholesterol side chains”.
`N#Cc1ccc(C2CCCc3cncn32)cc1` (centres unmarked) [CGS 16949A, 5-(p-cyanophenyl)-5,6,7,8-tetrahydroimidazo[1,5-a]pyridine]: in [2] (Rattus norvegicus, po, read-out: dose decreasing plasma aldosterone level), the minimal effective dose was at least 0.1 mg/kg. Further, in series [2] (rat, in vivo), the “Decrease in plasma aldosterone” value is 37% and 55%; the “change of plasma levels of aldosterone” value was “did change”. Moreover, the minimal effective dose in series [3] (Rattus norvegicus, po, read-out: dose elevating plasma 17α-hydroxyprogesterone level) is at least 0.1 mg/kg. Also, in [3] (rat, in vivo), the “Elevation in plasma 17α-hydroxyprogesterone” value is 169% and 313%; the “change of plasma levels of 17α-hydroxyprogesterone” value was “did change”. For the same molecule, the “inhibition of the biosynthesis of aldosterone” value in [4] is reported as “inhibits the biosynthesis of aldosterone”.
`Cn1nnc2ccc(Oc3ccc(C#N)cc3Cn3cncn3)cc21` [Example 52, 4-[6-(1-methyl-1H-benzotriazoyloxy)]-3-(1H-1,2,4-triazol-1-ylmethyl)benzonitrile]: the IC50 (commonly the midpoint of a concentration-inhibition curve) in [5] worked out at 0.4 nM. Also, the “effect on plasma levels of progesterone” value in [6] is “neither the compound of Example 41 nor the compound of Example 52 in accordance with the present invention had any effect”. The “effect on plasma levels of testosterone” value in [7] is reported as “neither the compound of Example 41 nor the compound of Example 52 in accordance with the present invention had any effect”. In addition, the “effect on plasma levels of corticosterone” value in [8] is “neither the compound of Example 41 nor the compound of Example 52 in accordance with the present invention had any effect”. Moreover, in [9] (0.001 mg/kg orally), the inhibition in vivo at 0.001 mg/kg stood at 22%. The inhibition in vivo at 0.01 mg/kg in series [9] (0.01 mg/kg orally) was determined as 77%. Also, the inhibition in vivo at 0.1 mg/kg in [9] (0.1 mg/kg orally) turned out to be 91%. Moreover, the “effect on any steroid hormone level in blood” value in series [10] is “Neither the compound of Example 41 nor the compound of Example 52 in accordance with the present invention had any effect”.
